Reference: patent US12459951B2, “Compounds that interact with RAS superfamily proteins for treatment of cancers, inflammatory diseases, rasopathies, and fibrotic disease” (SHY Therapeutics, LLC, priority 2022, dated 2025)

What was measured:
active/cleaved caspase 9 = test: Cell-based caspase activation assay (western blot); design: species or system human
[1] = tested on: NCI-H358 (expressing KRas G12C mutant) tumors; test: In vivo efficacy in NCI-H358 (G12C) model; design: species or system Athymic Nude-Foxn1 nu mice; conditions: daily dose 50 mg/kg
Description: Biological Example 8: In Vivo Efficacy of Compound 6 in NCI-H358 (G12C) Model
Cell lines: Human tumor-derived non-small cell lung cancer cell lines NCI-H358 (expressing KRas G12C mutant was grown in RPMI-1640 Medium, ATCC 30-2001, supplemented with 10% fetal bovine serum (FBS) and Penicillin/Streptomycin 100U/ml (Lonza BioWhittaker, Morrisville, NC). Cells were trypsinized, washed in sterile PBS, counted, and resuspended in a 1:1 mix PBS/HC Matrigel (Corning, Glendale, AZ) at a concentration of 25×10^6/ml. Cells were kept on ice until injection.
The right flank of Athymic Nude-Foxn1 nu mice (The Jackson Laboratory, Harbor, ME) was injected subcutaneously with 5×10^6 cells in 200 μl of sterile PBS/Matrigel solution. Tumor mass was first measured 4 days after injection and mice were randomized on the basis of these measurements. Treatment was begun when tumors reached 150-200 mm^3, ^˜5-8 days after injection. Compound 6 was formulated in 20% captisol (50 mM citrate buffer, PH 5.0), and mice received either daily dose of vehicle or 50 mg/kg body weight of the formulated compound 6. Tumors were measured using digital calipers and volume (v) was calculated using the formula V=(W(2)×L)/2 where V is tumor volume, W is tumor width, and L is tumor length. Mice were housed in accordance with IACUC guidelines. The calculated Tumor Growth Inhibition (TGI) was 80%.

[2] = tested on: A549 (expressing KRas G12S mutant); test: Proliferation Assay (Cell Viability Assay); assay type: cell-based; conditions: Homo sapiens, A549, NSCLC
Description: (§1) Cell lines: Human tumor-derived cell lines were purchased from American Type Culture Collection. Human tumor-derived pancreatic cancer cell line MiaPaca-2 (expressing KRAS G12C mutant) and Panc-1 (expressing KRas G12D mutant), and Human non-small cell lung cancer (NSCLC) cell line A549 (expressing KRas G12S mutant) were grown in complete DMEM-High Glucose medium. Human colon cancer cell line SW-620 (expressing KRas G12V mutant) was grown in RPMI 1640 medium. All cell lines were supplemented with penicillin (100 U/mL), streptomycin (100 μg/mL), and 10% heat-inactivated FBS at 37° C. in a humidified incubator with 5% CO2.
(§2) Method: Cells were plated at 2000 to 5000 cells/well density in 96-wells plate and cultured overnight. Small molecules to be tested were added to the cells in the final concentration of 10 μM in the presence of 0.3% DMSO and 10% FBS and incubated for 2-4 days at 37° C. in a humidified incubator with 5% CO2. For IC50 value determination, serial dilutions of compounds were added to cells under the same conditions.
(§3) Assay: At the end of the incubation period, cell viability was determined using the CellTiter 96® Aqueous One Solution Cell Proliferation Assay according to manufacturer specifications (Promega, Madison, WI). The percentage of small molecules inhibition of cellular proliferation was calculated from raw data.
(§4) Cell lines: these Human tumor-derived cell lines were purchased from American Type Culture Collection. Human tumor-derived pancreatic cancer cell line MiaPaca-2 (expressing KRAS G12C mutant) and Panc-1 (expressing KRas G12D mutant), and Human non-small cell lung cancer (NSCLC) cell line A549 (expressing KRas G12S mutant), and Human melanoma cell line A375 (wild type Kras) were grown in complete DMEM-High Glucose medium. Human tumor-derived pancreatic cancer cell lines SU86.86 (expressing KRas G12D mutant), BxPC3 (expressing wild type K-Ras), and Human non-small cell lung cancer (NSCLC) cell lines NCI-H441 (expressing KRas G12S mutant), NCI-H1975 (expressing wild type KRas), NCI-H358 (expressing KRas G12C mutant), NCI-H1299 (expressing NRas Q61H mutant), and Human colon cancer cell line SW-620 (expressing KRas G12V mutant), Human triple negative breast cancer cell line HCC-1806 (expressing wild type KRas), and Human tumor-derived multiple myeloma cell line MM.1R (expressing wild type KRAS), were grown in RPMI 1640 medium. Human tumor-derived breast cancer cell line BT-549 (expressing wild type KRAS) was grown in RPMI 1640 medium in the presence of 11.8U insulin. Human tumor-derived pancreatic cancer cell line HPAF-II (expressing KRas G12D mutant), Human triple negative breast cancer cell line BT-20 (expressing wild type KRas), and Human colon cancer cell line LS123 (expressing KRas G12S mutant), were grown in EMEM medium. Human tumor-derived pancreatic cancer cell line CF-PAC1 (expressing KRas G12V mutant) was frown in IMDM medium, and Human colon cancer cell line HT29 (expressing wild type KRas) was grown in McCoy's 5A medium. The colon cancer cell line GP2d (expressing KRas G12D mutant) was purchased from MilliporeSigma and grown in DMEM-High Glucose medium. All cell lines were supplemented with penicillin (100 U/mL), streptomycin (100 μg/mL), and 10% heat-inactivated FBS at 37° C. in a humidified incubator with 5% CO2.
as §2, with “that were” for “to be”, “FBS,” for “FBS”

[3] = tested on: Panc-1 (expressing KRas G12D mutant); test: Proliferation Assay (Cell Viability Assay); assay type: cell-based; conditions: Homo sapiens, Panc1, pancreatic
Description: as §1, §2, §3, §4
as §2, with “that were” for “to be”, “FBS,” for “FBS”

[4] = tested on: SW-620 (expressing KRas G12V mutant); test: Proliferation Assay (Cell Viability Assay); assay type: cell-based; conditions: Homo sapiens, SW-620, colon
Description: as §1, §2, §3, §4
as §2, with “that were” for “to be”, “FBS,” for “FBS”

[5] = tested on: HPAF-II (expressing KRas G12D mutant); test: Proliferation Assay (Cell Viability Assay); assay type: cell-based; conditions: Homo sapiens, pancreatic
Description: as §4
as §2, with “that were” for “to be”, “FBS,” for “FBS”
as §3

[6] = tested on: NCI-H1975 (expressing wild type KRas); test: Proliferation Assay (Cell Viability Assay); assay type: cell-based; conditions: Homo sapiens; NCI-H1975, NSCLC, KRas WT
Description: as §4
as §2, with “that were” for “to be”, “FBS,” for “FBS”
as §3

[7] = tested on: NCI-H441 (expressing KRas G12S mutant); test: Proliferation Assay (Cell Viability Assay); assay type: cell-based; conditions: Homo sapiens, NCI-H441, NSCLC
Description: as §4
as §2, with “that were” for “to be”, “FBS,” for “FBS”
as §3

[8] = tested on: HCC-1806 (expressing wild type KRas); test: Proliferation Assay (Cell Viability Assay); assay type: cell-based; conditions: Homo sapiens, HCC1806; HCC-1806, Breast (TNBC), KRas WT
Description: as §4
as §2, with “that were” for “to be”, “FBS,” for “FBS”
as §3

[9] = tested on: SU86.86 (expressing KRas G12D mutant); test: Proliferation Assay (Cell Viability Assay); assay type: cell-based; conditions: Homo sapiens, SU.86.86, SU86.86, pancreatic
Description: as §4
as §2, with “that were” for “to be”, “FBS,” for “FBS”
as §3

Structure (SMILES) | Caspase 9 activation (active/cleaved caspase 9; HCC1806, after 48 hours) | Caspase 9 activation (active/cleaved caspase 9; NCI-H358, after 48 hours) | Tumor Growth Inhibition (TGI) ([1]; NCI-H358 subcutaneous tumors in nude mice, 20% captisol formulation) [%] | Weight loss ([1]; NCI-H358 tumor-bearing nude mice) | IC50 [2] [nM] | IC50 [3] [nM] | IC50 [4] [nM] | IC50 [5] [nM] | IC50 [6] [nM] | IC50 [7] [nM] | IC50 [8] [nM] | IC50 [9] [nM]
Cc1c(-c2ccn(C)n2)cn2nc(-c3nccn3C)nc(Nc3cc4n(n3)CCO4)c12 [Compound 124, N-(5-Methyl-2-(1-methyl-1H-imidazol-2-yl)-6-(1-methyl-1H-pyrazol-3-yl)pyrrolo[2,1-f][1,2,4]triazin-4-yl)-2,3-dihydropyrazolo[5,1-b]oxazol-6-amine] | yes | yes | – | – | – | – | – | – | – | – | – | –
COc1cc(Nc2nc(-c3nccn3C)nn3cc(-c4ccn(C(C)C)n4)c(C)c23)ncn1 [Compound 6, 6-(1-Isopropyl-1H-pyrazol-3-yl)-N-(6-methoxypyrimidin-4-yl)-5-methyl-2-(1-methyl-1H-imidazol-2-yl)pyrrolo[2,1-f][1,2,4]triazin-4-amine] | – | – | 80 | No weight loss was detected | 510 to 1000 | < 150 | 150 to 500 | < 150 | 510 to 1000 | 510 to 1000 | 510 to 1000 | 150 to 500
